The structures appear in SMILES notation. Several values for one entry are separate records, joined by “and”; a condition that tells them apart may be missing. Equal entries are not always repeated. Activity calls are given as the source filed them. The rule behind the calls is not given here. Some results are limits rather than exact numbers.

The target of this assay is Peptidyl-prolyl cis-trans isomerase FKBP1A (Homo sapiens) (UniProt P62942). As to the kind of experiment: small-molecule binding to FKBP12 – biophysical, NMR detection (AID 608). The note with it: purified FKBP12.
Chain of Peptidyl-prolyl cis-trans isomerase FKBP1A (Homo sapiens) (P62942 whole entry, looked up): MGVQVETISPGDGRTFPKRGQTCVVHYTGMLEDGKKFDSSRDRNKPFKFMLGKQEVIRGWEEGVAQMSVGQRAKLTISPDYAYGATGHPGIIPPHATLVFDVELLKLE
With `CC(C)(O)CC[C@@H](O)[C@](C)(O)C1CC[C@@]2(O)C3=CC(=O)C4C[C@@H](O)[C@@H](O)C[C@]4(C)C3CC[C@]12C` (stereo not given in full), the Kd was > 4 mM (inactive).
`COc1ccc2c3c1O[C@H]1C[C@@H](O)C=C[C@@]31CCN(C)C2`: the Kd was > 4 mM (inactive).
With `C[C@H]1C(=O)O[C@@H]2CCN3CC=C(COC(=O)[C@](C)(O)[C@]1(C)O)[C@H]23` the figure was > 4 mM (inactive); with `Cc1cc(C(=O)Nc2cccnc2)cs1`, > 4 mM (inactive); with `O=C1COc2cc(O)ccc21`, > 4 mM (inactive).
For `Nc1nnc(Cc2ccc(Cl)cc2)s1` the value was > 4 mM (inactive); for `Nc1cccc(C(=O)c2ccccc2)c1`, > 4 mM (inactive); for `NC(CC(=O)O)C(=O)Nc1ccc(Cl)cc1` (stereo not given), > 4 mM (inactive).
For the molecule `CCOC(=O)CSCC(=O)Nc1nccs1`, the Kd is > 4 mM (inactive).
With `Cc1ccc2cccc(OC(=O)N3CCCC3)c2n1` the figure was > 4 mM (inactive).
On to `COC(=O)c1c(C)cc(OC)cc1O`, for which the Kd was > 4 mM (inactive).
For `Cc1ccc(Nc2nnns2)cc1C` the value was > 4 mM (inactive).
For `O=C1NC(=O)C(=Cc2ccccc2)C(=O)N1` the value was > 4 mM (inactive); for `O=P(O)(Cc1ccccc1)c1ccccc1`, > 4 mM (inactive).
On to `CC(=O)Nc1nnc(-c2ccncc2)s1`, for which the Kd is > 4 mM (inactive).
For `Cc1cc(=O)c2c(O)c(C)c(O)cc2o1` the value was > 4 mM (inactive); for `CC(=O)NC(=S)Nc1cccc(C(=O)O)c1C`, > 4 mM (inactive); for `Cc1cc(N)on1`, > 4 mM (inactive).
With `CN1CCN(S(=O)(=O)c2ccc(=O)[nH]c2)CC1` the figure was > 4 mM (inactive); with `Cc1cc(C)nc(Nc2n[nH]c(Cc3ccccc3)n2)n1`, > 4 mM (inactive); with `O=C(CSc1ccccc1)N1CCC2(CC1)OCCO2`, > 4 mM (inactive).
Consider `COc1cc(/C=C/C(=O)/C=C(O)/C=C/c2ccc(O)c(OC)c2)ccc1O`, for which the Kd was > 4 mM (inactive).
As for `Nc1cccc2nonc12`, the Kd was > 4 mM (inactive).
In the case of `O=C(CSc1ccnc(=O)[nH]1)NCc1ccco1`, the Kd was > 4 mM (inactive).
On to `Cn1ccc(C(=O)NC(=S)NN2CCOCC2)n1`, for which the Kd was > 4 mM (inactive).
Turning to `Oc1ccc(-c2n[nH]c(=S)n2Cc2ccco2)cc1`, the Kd is > 4 mM (inactive).
For `CC(=O)NCc1nc2ccccc2[nH]1` the value was > 4 mM (inactive); for `CC(=O)c1cc(-c2nc3ccccc3n2C)n(C)c1`, > 4 mM (inactive).
For `COc1ccc(NS(=O)(=O)N2CCOCC2)cc1` the value was > 4 mM (inactive).
As for `CCCSc1nnc2[nH]c(=O)cc(N)n12`, the Kd was > 4 mM (inactive).
For `Cc1cc(C)n(-c2ccc(N)cc2)n1` the value was > 4 mM (inactive).
In the case of `Cn1c(CN)nc2ccccc21`, the Kd was > 4 mM (inactive).
On to `Cc1ccccc1NC(=O)c1ocnc1C`, for which the Kd was > 4 mM (inactive).
With `COc1cccc(NC(=O)c2cccs2)c1` the figure was 0.44 mM; with `Cc1cc(C)n(-c2ccc(Cl)nn2)n1`, > 4 mM (inactive).
With `COc1cc2c(c(OC)c1OC)-c1ccc(O)c(=O)cc1[C@@H](NC(C)=O)CC2` the figure was > 4 mM (inactive); with `O=c1[nH]c2ccc(S(=O)(=O)NC3CC3)cc2[nH]1`, > 4 mM (inactive).
Consider `CC(=O)OCC(=O)[C@@]1(O)CCC2C3CC[C@@H]4C[C@H](O)CC[C@]4(C)C3C(=O)C[C@@]21C` (stereo not given in full), for which the Kd was > 4 mM (inactive).
In the case of `N#Cc1nc(N2CCCCC2)nc(N2CCOCC2)n1`, the Kd is > 4 mM (inactive).
With `Cc1cc2ncc(C(=O)O)c(C)n2n1` the figure was > 4 mM (inactive).
As for `O=C(Nc1ccon1)c1ccc(Br)o1`, the Kd was > 4 mM (inactive).
Consider `O=C1NC(=O)/C(=C\c2ccco2)S1`, for which the Kd is > 4 mM (inactive).
With `Nc1ncnc(NC2CCS(=O)(=O)C2)c1[N+](=O)[O-]` (stereo not given) the figure was > 4 mM (inactive); with `Cc1c(C(=O)Nc2cnccn2)oc2ccccc12`, > 4 mM (inactive).
Turning to `Cc1cccc(C)c1NC(=O)/C=C/C(=O)O`, the Kd is > 4 mM (inactive).
For `CC(NC(=O)c1ccco1)C1CCCO1` (stereo not given) the value was > 4 mM (inactive); for `Nc1ncccc1OCc1ccccc1`, > 4 mM (inactive); for `OC[C@H]1O[C@@](CO)(O[C@@H]2O[C@H](CO)[C@@H](O)[C@H](O)[C@H]2O)[C@@H](O[C@@H]2O[C@H](CO)[C@@H](O)[C@H](O)[C@H]2O)[C@@H]1O`, > 4 mM (inactive).
`CC12CNCC(C)(CNC1)C2O` (stereo not given): the Kd is > 4 mM (inactive).
For `C=C[C@H]1CN2CC[C@H]1C[C@H]2[C@H](O)c1ccnc2ccccc12` the value was > 4 mM (inactive); for `Cc1ccc(C)c(S(=O)(=O)NCc2cccnc2)c1`, > 4 mM (inactive).
For `CSc1nc(NC(C)(C)C)nc(N2CCOCC2)n1` the value was > 4 mM (inactive); for `CC(=O)OC1CCC2(C)C(=CC=C3C2CCC2(C)C3CCC2C(C)/C=C/C(C)C(C)C)C1(C)C` (stereo not given), > 4 mM (inactive); for `CCN1CCN(c2ncnc3c2nnn3C)CC1`, > 4 mM (inactive).
For `Cc1nnc(C)n1/N=C/c1cccs1` the value was > 4 mM (inactive).
`O=C(O)CCc1ccc2c(c1)OCO2`: the Kd was > 4 mM (inactive).
For `Cc1c(CCO)c(=O)n2c([nH]c3ccccc32)c1C#N` the value was > 4 mM (inactive).
`CN1CC(=O)N=C1N`: the Kd was > 4 mM (inactive).
For `N#C/C(=C\c1ccc[nH]1)S(=O)(=O)c1ccccc1` the value was > 4 mM (inactive); for `CC(=O)O[C@H]1CC[C@@]2(C)C(CC[C@]3(C)C2C(=O)C=C2C4[C@@H](C)[C@H](C)CC[C@]4(C(=O)O)CC[C@]23C)C1(C)C` (stereo not given in full), > 4 mM (inactive).
With `Nc1ncnc2c1ncn2CCN1CCOCC1` the figure was > 4 mM (inactive); with `O=C(c1ccco1)N1CCCN(C(=O)c2ccco2)CC1`, 0.072 mM and 0.277 mM.
For `COCCn1c(SC)nc2c1c(=O)[nH]c(=O)n2C` the value was > 4 mM (inactive).
Turning to `Cc1nc(-c2cc(CO)no2)cs1`, the Kd was > 4 mM (inactive).
For `O=C(O)c1cccc2c1OCCCO2` the value was > 4 mM (inactive); for `Cc1ccc(N2C(=O)CCC2=O)cc1`, > 4 mM (inactive).
Consider `CC(=O)c1c(O)n(C)c(=S)n(C)c1=O`, for which the Kd was > 4 mM (inactive).
As for `O=C(O)C1(O)C[C@@H](O)C(O)[C@H](O)C1` (stereo not given in full), the Kd is > 4 mM (inactive).
For `CN1CCN(c2ccc(C(=O)O)cc2)CC1` the value was > 4 mM (inactive); for `CC(=O)c1ccc(CC2SC(N)=NC2=O)cc1` (stereo not given), > 4 mM (inactive).
`COn1c(=O)c(C)[n+]([O-])c2ccccc21`: the Kd is > 4 mM (inactive).
For `NC[C@H]1O[C@H](O[C@H]2[C@H](O)[C@@H](O[C@H]3O[C@H](CO)[C@@H](O)[C@H](N)[C@H]3O)[C@H](N)C[C@@H]2N)[C@H](N)[C@@H](O)[C@@H]1O` the value was > 4 mM (inactive).
For `O=c1[nH]cc(NCc2ccccc2)c(=O)[nH]1` the value was > 4 mM (inactive); for `Nc1cccnc1Oc1ccc(F)cc1F`, > 4 mM (inactive).
For `NCc1cc2ccccc2s1` the value was > 4 mM (inactive); for `Nc1ncnc2c1ncn2C1O[C@H](COP(=O)(O)O)[C@@H](O)[C@H]1O` (stereo not given in full), > 4 mM (inactive); for `O=C1OC(N2CCOCC2)c2ccccc21` (stereo not given), > 4 mM (inactive).
For `O=C(NCO)c1ccccc1Cl`, the Kd was > 4 mM (inactive).
For the molecule `CC(C)CCCC(C)C1CCC2C3C[C@@H](O)[C@@]4(O)C[C@@H](O)CC[C@]4(C)C3CC[C@]12C` (stereo not given in full), the Kd was > 4 mM (inactive).
For `C[C@H]1[C@H]2CCC3C4CC=C5C[C@@H](N(C)C)CC[C@]5(C)C4CC[C@@]32CN1C` (stereo not given in full) the value was > 4 mM (inactive).
Turning to `O=C1CS/C(=N/S(=O)(=O)c2ccccc2)N1`, the Kd is > 4 mM (inactive).
Take `CC1(C)Cc2nc3n[nH]c(N)c3cc2CO1`: the Kd was > 4 mM (inactive).
Turning to `NC(=O)Cn1nc(-c2ccc(F)cc2)ccc1=O`, the Kd is > 4 mM (inactive).
Consider `Nc1scc[n+]1CC(=O)[O-]`, for which the Kd was > 4 mM (inactive).
With `COc1ccccc1N1C(=N)SCC1=O`, the Kd was > 4 mM (inactive).
Regarding `c1ccc(CCc2nc(-c3cccnc3)no2)cc1`, the Kd is > 4 mM (inactive).
For `Cc1cc2cc(N)ccc2[nH]1` the value was > 4 mM (inactive).
For `CC(=O)NC(=S)Nc1ccc(C(C)=O)cc1` the value was > 4 mM (inactive).
For `O=C(O)c1ccc(-c2cnco2)cc1` the value was > 4 mM (inactive); for `CC(=O)O[C@@H]1CC2C(C)(C)C(=O)[C@@H]3O[C@@H]3[C@]2(C)C2CC[C@]3(C)C(=CC(=O)O[C@H]3c3ccoc3)[C@@]21C` (stereo not given in full), > 4 mM (inactive).
`CS(=O)(=O)N1CCC(C(=O)NC2CCCC2)CC1`: the Kd was > 4 mM (inactive).
For `CC1(C)C(=O)CC[C@@]2(C)C1C[C@@H](O)[C@@]1(C)C3=CC(=O)O[C@@H](c4ccoc4)[C@]3(C)CCC21` (stereo not given in full) the value was > 4 mM (inactive); for `O=C(O)CCc1c[nH]c2ccccc12`, > 4 mM (inactive); for `O=S(=O)(Nc1ccc(Br)cc1)N1CCOCC1`, “inactive”.
With `O=C(O)C1(S(=O)(=O)c2ccccc2)CC1` the figure was > 4 mM (inactive); with `O=C(O)/C=C(\CC(=O)O)C(=O)O`, > 4 mM (inactive); with `CC(=O)c1ccc(NS(=O)(=O)c2cccc(C)c2)cc1`, > 4 mM (inactive).
Turning to `COc1ccccc1-c1c(C)nn2c(C)c(C(C)=O)cnc12`, the Kd is > 4 mM (inactive).
`COc1cc2c(cc1OC)C(C)NCC2` (stereo not given): the Kd is > 4 mM (inactive).
Consider `NS(=O)(=O)c1ccc(NC(=O)/C=C\C(=O)O)cc1`, for which the Kd is > 4 mM (inactive).

Source of the values: PubChem BioAssay AID608 (Sanford-Burnham Center for Chemical Genomics, 2007).
